Experimental data as given in patent US8415351B2 (priority 2007, dated 2013).
Like-named read-outs stand apart in the source and are kept apart here.

What was measured:
[1] = system: genotype 1a-H77 subgenomic replicon cell line; test: microbe, parasite or virus in culture; type: cell-based, HCV; conditions: read-out: EC50 1a
[2] = system: genotype 1b-Con1 subgenomic replicon cell line; test: microbe, parasite or virus in culture; type: cell-based, HCV; conditions: read-out: EC50 1b

COc1c(C=C(F)c2ccc(NS(C)(=O)=O)cc2)cc(N2CCC(=O)NC2=O)cc1C(C)(C)C (racemic) [IA-L1-1.21, N-(4-(2-(3-tert-butyl-5-(2,4-dioxotetrahydropyrimidin-1(2H)-yl)-2-methoxyphenyl)-1-fluorovinyl)phenyl)methanesulfonamide]
EC50 ([1]; Hepatitis C virus): < 10 nM | EC50 ([2]; Hepatitis C virus): < 10 nM

COc1c(-c2nc3cc(NS(C)(=O)=O)ccc3[nH]2)cc(N2CCC(=O)NC2=O)cc1C(C)(C)C [IA-L0-2.1, N-(2-(3-tert-butyl-5-(2,4-dioxotetrahydropyrimidin-1(2H)-yl)-2-methoxyphenyl)-1H-benzo[d]imidazol-5-yl)methanesulfonamide]
EC50 ([1]; Hepatitis C virus): > 1000 nM | EC50 ([2]; Hepatitis C virus): > 1000 nM

COc1c(-c2nc3ccc(NS(C)(=O)=O)cc3s2)cc(N2CCC(=O)NC2=O)cc1C(C)(C)C [IA-L0-2.2, N-(2-(3-tert-butyl-5-(2,4-dioxotetrahydropyrimidin-1(2H)-yl)-2-methoxyphenyl)benzo[d]thiazol-6-yl)methanesulfonamide]
EC50 ([1]; Hepatitis C virus): 100 to 1000 nM | EC50 ([2]; Hepatitis C virus): 10 to 100 nM

COc1c(-c2nc3ccccc3s2)cc(N2CCC(=O)NC2=O)cc1C(C)(C)C [IA-L0-2.3, 1-(3-(benzo[d]thiazol-2-yl)-5-tert-butyl-4-methoxyphenyl)dihydro pyrimidine-2,4(1H,3H)-dione]
EC50 ([1]; Hepatitis C virus): 100 to 1000 nM | EC50 ([2]; Hepatitis C virus): 100 to 1000 nM

COc1c(-c2nc3cc(NS(C)(=O)=O)ccc3s2)cc(N2CCC(=O)NC2=O)cc1C(C)(C)C [IA-L0-2.4, N-(2-(3-tert-butyl-5-(2,4-dioxotetrahydropyrimidin-1(2H)-yl)-2-methoxyphenyl)benzo[d]thiazol-5-yl)methanesulfonamide]
EC50 ([1]; Hepatitis C virus): > 1000 nM | EC50 ([2]; Hepatitis C virus): 100 to 1000 nM

COc1c(-c2nc3ccc(NS(C)(=O)=O)cc3o2)cc(N2CCC(=O)NC2=O)cc1C(C)(C)C [IA-L0-2.5, N-(2-(3-tert-butyl-5-(2,4-dioxotetrahydropyrimidin-1(2H)-yl)-2-methoxyphenyl)benzo[d]oxazol-6-yl)methanesulfonamide]
EC50 ([1]; Hepatitis C virus): > 1000 nM | EC50 ([2]; Hepatitis C virus): > 1000 nM

COc1c(-c2nc3ccc([N+](=O)[O-])cc3o2)cc(N2CCC(=O)NC2=O)cc1C(C)(C)C [IA-L0-2.6, 1-(3-tert-butyl-4-methoxy-5-(6-nitrobenzo[d]oxazol-2-yl)phenyl) dihydropyrimidine-2,4(1H,3H)-dione]
EC50 ([1]; Hepatitis C virus): > 1000 nM | EC50 ([2]; Hepatitis C virus): > 1000 nM

COc1c(-c2nc3cc([N+](=O)[O-])ccc3o2)cc(N2CCC(=O)NC2=O)cc1C(C)(C)C [IA-L0-2.7, 1-(3-tert-butyl-4-methoxy-5-(5-nitrobenzo[d]oxazol-2-yl)phenyl) dihydropyrimidine-2,4(1H,3H)-dione]
EC50 ([1]; Hepatitis C virus): > 1000 nM | EC50 ([2]; Hepatitis C virus): 100 to 1000 nM

COc1c(-c2nc3cc(NS(C)(=O)=O)ccc3o2)cc(N2CCC(=O)NC2=O)cc1C(C)(C)C [IA-L0-2.8, N-(2-(3-tert-butyl-5-(2,4-dioxotetrahydropyrimidin-1(2H)-yl)-2-methoxyphenyl)benzo[d]oxazol-5-yl)methanesulfonamide]
EC50 ([1]; Hepatitis C virus): 100 to 1000 nM | EC50 ([2]; Hepatitis C virus): 10 to 100 nM

COc1c(-c2ccc3cc(NS(C)(=O)=O)ccc3c2)cc(N2CCC(=O)NC2=O)cc1C(C)(C)C [IA-L0-2.9, N-(6-(3-tert-butyl-5-(2,4-dioxotetrahydropyrimidin-1(2H)-yl)-2-methoxyphenyl)naphthalen-2-yl)methanesulfonamide]
EC50 ([1]; Hepatitis C virus): < 10 nM | EC50 ([2]; Hepatitis C virus): < 10 nM

COc1c(/C=C(\Cl)c2ccc(NS(C)(=O)=O)cc2)cc(N2CCC(=O)NC2=O)cc1C(C)(C)C [IA-L1-1.3, (Z)—N-(4-(2-(3-tert-butyl-5-(2,4-dioxotetrahydropyrimidin-1(2H)-yl)-2-methoxyphenyl)-1-chlorovinyl)phenyl)methanesulfonamide]
EC50 ([1]; Hepatitis C virus): 10 to 100 nM | EC50 ([2]; Hepatitis C virus): < 10 nM

COc1c(/C=C(\F)c2ccc(NS(C)(=O)=O)cc2)cc(N2CCC(=O)NC2=O)cc1C(C)(C)C [IA-L1-1.4, (Z)—N-(4-(2-(3-tert-butyl-5-(2,4-dioxotetrahydropyrimidin-1(2H)-yl)-2-methoxyphenyl)-1-fluorovinyl)phenyl)methanesulfonamide]
EC50 ([1]; Hepatitis C virus): < 10 nM | EC50 ([2]; Hepatitis C virus): < 10 nM

COc1c(/C=C(/F)c2ccc(NS(C)(=O)=O)cc2)cc(N2CCC(=O)NC2=O)cc1C(C)(C)C [IA-L1-1.5, (E)-N-(4-(2-(3-tert-butyl-5-(2,4-dioxotetrahydropyrimidin-1(2H)-yl)-2-methoxyphenyl)-1-fluorovinyl)phenyl)methanesulfonamide]
EC50 ([1]; Hepatitis C virus): 10 to 100 nM | EC50 ([2]; Hepatitis C virus): < 10 nM

COc1c(/C=C(\C)c2ccc(NS(C)(=O)=O)cc2)cc(N2CCC(=O)NC2=O)cc1C(C)(C)C [IA-L1-1.6, (E)-N-(4-(1-(3-tert-butyl-5-(2,4-dioxotetrahydropyrimidin-1(2H)-yl)-2-methoxyphenyl)prop-1-en-2-yl)phenyl)methanesulfonamide]
EC50 ([1]; Hepatitis C virus): 10 to 100 nM | EC50 ([2]; Hepatitis C virus): 10 to 100 nM

COc1c(/C=C/c2ccc(NS(C)(=O)=O)cc2)cc(N2CCC(=O)NC2=O)cc1C(C)(C)C [IA-L1-1.9, (E)-N-(4-(3-tert-butyl-5-(2,4-dioxotetrahydropyrimidin-1(2H)-yl)-2-methoxystyryl)phenyl)methanesulfonamide]
EC50 ([1]; Hepatitis C virus): 10 to 100 nM | EC50 ([2]; Hepatitis C virus): < 10 nM

COc1c(/C=C/c2ccc(N(C(C)=O)S(C)(=O)=O)cc2)cc(N2CCC(=O)NC2=O)cc1C(C)(C)C [IA-L1-1.11, (E)-N-(4-(3-tert-butyl-5-(2,4-dioxotetrahydropyrimidin-1(2H)-yl)-2-methoxystyryl)phenyl)-N-(methylsulfonyl)acetamide]
EC50 ([1]; Hepatitis C virus): < 10 nM | EC50 ([2]; Hepatitis C virus): < 10 nM

COc1c(/C=C/c2ccc(F)cc2)cc(N2CCC(=O)NC2=O)cc1C(C)(C)C [IA-L1-1.12, (E)-1-(3-tert-butyl-5-(4-fluorostyryl)-4-methoxyphenyl) dihydropyrimidine-2,4(1H,3H)-dione]
EC50 ([1]; Hepatitis C virus): 100 to 1000 nM | EC50 ([2]; Hepatitis C virus): 100 to 1000 nM

COc1c(/C=C/c2ccc(N)cc2)cc(N2CCC(=O)NC2=O)cc1C(C)(C)C [IA-L1-1.13, (E)-1-(3-(4-aminostyryl)-5-tert-butyl-4-methoxyphenyl)dihydropyrimidine-2,4(1H,3H)-dione]
EC50 ([1]; Hepatitis C virus): > 1000 nM | EC50 ([2]; Hepatitis C virus): 100 to 1000 nM

COc1ccc(/C=C/c2cc(N3CCC(=O)NC3=O)cc(C(C)(C)C)c2OC)cc1 [IA-L1-1.14, (E)-1-(3-tert-butyl-4-methoxy-5-(4-methoxystyryl)phenyl) dihydropyrimidine-2,4(1H,3H)-dione]
EC50 ([1]; Hepatitis C virus): > 1000 nM | EC50 ([2]; Hepatitis C virus): > 1000 nM

CC(C)(C)c1cc(/C=C/c2ccc(NS(C)(=O)=O)cc2)cc(N2CCC(=O)NC2=O)c1 [IA-L1-1.16, (E)-N-(4-(3-tert-butyl-5-(2,4-dioxotetrahydropyrimidin-1(2H)-yl)styryl)phenyl)methanesulfonamide]
EC50 ([1]; Hepatitis C virus): 10 to 100 nM | EC50 ([2]; Hepatitis C virus): 10 to 100 nM

CO/C(=C\c1cc(N2CCC(=O)NC2=O)cc(C(C)(C)C)c1OC)c1ccc(NS(C)(=O)=O)cc1 [IA-L1-1.17, (Z)—N-(4-(2-(3-tert-butyl-5-(2,4-dioxotetrahydropyrimidin-1(2H)-yl)-2-methoxyphenyl)-1-methoxyvinyl)phenyl)methanesulfonamide]
EC50 ([1]; Hepatitis C virus): 10 to 100 nM | EC50 ([2]; Hepatitis C virus): 10 to 100 nM

COc1c(/C=C/c2ccccc2)cc(N2CCC(=O)NC2=O)cc1C(C)(C)C [IA-L1-1.18, (E)-1-(3-tert-butyl-4-methoxy-5-styrylphenyl)dihydro-pyrimidine-2,4(1H,3H)-dione]
EC50 ([1]; Hepatitis C virus): 100 to 1000 nM | EC50 ([2]; Hepatitis C virus): 100 to 1000 nM

COc1c(/C=C/c2ccc([N+](=O)[O-])cc2)cc(N2CCC(=O)NC2=O)cc1C(C)(C)C [IA-L1-1.22, (E)-1-(3-tert-butyl-4-methoxy-5-(4-nitrostyryl)phenyl)dihydropyrimidine-2,4(1H,3H)-dione]
EC50 ([1]; Hepatitis C virus): > 1000 nM | EC50 ([2]; Hepatitis C virus): 100 to 1000 nM

COc1c(/C=C(\Cl)c2ccc([N+](=O)[O-])cc2)cc(N2CCC(=O)NC2=O)cc1C(C)(C)C [IA-L1-1.23, 1-{3-tert-butyl-5-[(Z)-2-chloro-2-(4-nitro-phenyl)-vinyl]-4-methoxy-phenyl}-dihydro-pyrimidine-2,4-dione]
EC50 ([1]; Hepatitis C virus): > 1000 nM | EC50 ([2]; Hepatitis C virus): > 1000 nM

COc1c(/C=C(\C)c2ccc([N+](=O)[O-])cc2)cc(N2CCC(=O)NC2=O)cc1C(C)(C)C [IA-L1-1.24, 1-{3-tert-butyl-4-methoxy-5-[(E)-2-(4-nitro-phenyl)-propenyl]-phenyl}-dihydro-pyrimidine-2,4-dione]
EC50 ([1]; Hepatitis C virus): > 1000 nM | EC50 ([2]; Hepatitis C virus): > 1000 nM

COc1c(/C=C/c2ccc(NS(C)(=O)=O)c(F)c2)cc(N2CCC(=O)NC2=O)cc1C(C)(C)C [IA-L1-1.26, (E)-N-(4-(3-tert-butyl-5-(2,4-dioxotetrahydropyrimidin-1(2H)-yl)-2-methoxystyryl)-2-fluorophenyl)methanesulfonamide]
EC50 ([1]; Hepatitis C virus): 10 to 100 nM | EC50 ([2]; Hepatitis C virus): 10 to 100 nM

CC(C)(C)c1cc(NC(=O)c2ccc(NS(C)(=O)=O)cc2)cc(N2CCC(=O)NC2=O)c1 [IA-L3-1.84, N-(3-tert-butyl-5-(2,4-dioxotetrahydropyrimidin-1(2H)-yl)phenyl)-4-(methylsulfonamido) benzamide]
EC50 ([1]; genotype 1a-H77 replicon, luciferase reporter): > 1000 nM | EC50 ([2]; genotype 1b-Con1 replicon, luciferase reporter): > 1000 nM

COc1c(-c2ccc3c(c2)CC/C3=N\NS(C)(=O)=O)cc(-n2ccc(=O)[nH]c2=O)cc1C(C)(C)C [IB-L0-2.4, (E)-N′-(5-(3-tert-butyl-5-(2,4-dioxo-3,4-dihydropyrimidin-1(2H)-yl)-2-methoxyphenyl)-2,3-dihydro-1H-inden-1-ylidene)methanesulfonohydrazide]
EC50 ([2]; Hepatitis C virus): < 10 nM

CC(C)(C)c1cc(-c2ccc3cc(NS(C)(=O)=O)ccc3c2)cc(-n2ccc(=O)[nH]c2=O)c1 [IB-L0-2.8, N-(6-(3-tert-butyl-5-(2,4-dioxo-3,4-dihydropyrimidin-1(2H)-yl)phenyl)naphthalen-2-yl)methanesulfonamide]
EC50 ([2]; Hepatitis C virus): 10 to 100 nM

COc1c(/C=C/c2ccc(NS(C)(=O)=O)cc2)cc(-n2cc(F)c(=O)[nH]c2=O)cc1C(C)(C)C [IB-L1-1.2, (E)-N-(4-(3-tert-butyl-5-(5-fluoro-2,4-dioxo-3,4-dihydro-pyrimidin-1(2H)-yl)-2-methoxystyryl)phenyl)methanesulfonamide]
EC50 ([2]; Hepatitis C virus): 10 to 100 nM
